Data on eleven compounds can be found in patent US9309261B2, “Spirooxindole derivative and process for producing the same” (OKINAWA INSTITUTE OF SCIENCE AND TECHNOLOGY SCHOOL …, priority 2012, dated 2016).

Structures are written as SMILES. pIC50: −log10 of the molar value. A value given as a limit tells only on which side of the number the result lay.

Series [1] in a line: Cytotoxicity: K562 cell growth inhibition (Cell Counting Kit-8, WST-8). The note with it: human, K562 cells. The class given is cell-based. The procedure:
K562 cells (American Type Culture Collection) were cultured in a culture medium containing 10% (v/v) fetal calf serum (FCS) (manufactures by Sigma) to logarithmic phase. The cells were seeded in 96-well microtiter plate at a density of 5000 cells/well in 100 μL cell culture medium and incubated at 37° C. and 5% CO2 in a humidified incubator overnight. The test compounds of various concentrations were added in a well at 10 fold concentration in 1/10 volume of medium without FCS. After 6-48 hrs incubation at 37° C. in the CO2 incubator, 10 μL solution of the viable cell counting reagent, Cell counting Kit-8 (5 mmol/L WST-8, 0.2 mmol/L 1-Methoxy PMS, 150 mmol/L NaCl) (manufactured by Dojindo) was added to each well, and reacted for 1 to 4 hours in the CO2 incubator. After the incubation, an absorbance of formazan, generated by reduction of WST-8 was determined at 450 nm using a microplate reader.
The assay readout is correlated with the viable cell numbers. Small values correspond to high inhibition and larger values to low inhibition of the cell growth. To determine IC50 values (i.e. the concentration inhibiting the cell growth by 50%) of the compound of formula I, several assays were made with a range of concentrations chosen empirically to give low, high and intermediate inhibition of the growth and determined using the curve fitting software.
IC50 values can be converted logarithmically to pIC50 values (−log IC50), in which higher values indicate exponentially greater potency. The IC50 value is not an absolute value but depends on experimental conditions e.g. concentrations employed.
On the technique in general: Tetrazolium dyes change colour on reduction, which living cells bring about.

The subject of series [2] is tumor cells in which both WNT and KRas signaling pathways are activated. Kind of series: Selective lethality to tumor cells with activated WNT and KRas signaling. The series is classed as cell-based.
The target of series [3] is T1, Hexokinase-II (HK-II) (Homo sapiens, UniProt P52789).
T1 sequence (P52789 1-917): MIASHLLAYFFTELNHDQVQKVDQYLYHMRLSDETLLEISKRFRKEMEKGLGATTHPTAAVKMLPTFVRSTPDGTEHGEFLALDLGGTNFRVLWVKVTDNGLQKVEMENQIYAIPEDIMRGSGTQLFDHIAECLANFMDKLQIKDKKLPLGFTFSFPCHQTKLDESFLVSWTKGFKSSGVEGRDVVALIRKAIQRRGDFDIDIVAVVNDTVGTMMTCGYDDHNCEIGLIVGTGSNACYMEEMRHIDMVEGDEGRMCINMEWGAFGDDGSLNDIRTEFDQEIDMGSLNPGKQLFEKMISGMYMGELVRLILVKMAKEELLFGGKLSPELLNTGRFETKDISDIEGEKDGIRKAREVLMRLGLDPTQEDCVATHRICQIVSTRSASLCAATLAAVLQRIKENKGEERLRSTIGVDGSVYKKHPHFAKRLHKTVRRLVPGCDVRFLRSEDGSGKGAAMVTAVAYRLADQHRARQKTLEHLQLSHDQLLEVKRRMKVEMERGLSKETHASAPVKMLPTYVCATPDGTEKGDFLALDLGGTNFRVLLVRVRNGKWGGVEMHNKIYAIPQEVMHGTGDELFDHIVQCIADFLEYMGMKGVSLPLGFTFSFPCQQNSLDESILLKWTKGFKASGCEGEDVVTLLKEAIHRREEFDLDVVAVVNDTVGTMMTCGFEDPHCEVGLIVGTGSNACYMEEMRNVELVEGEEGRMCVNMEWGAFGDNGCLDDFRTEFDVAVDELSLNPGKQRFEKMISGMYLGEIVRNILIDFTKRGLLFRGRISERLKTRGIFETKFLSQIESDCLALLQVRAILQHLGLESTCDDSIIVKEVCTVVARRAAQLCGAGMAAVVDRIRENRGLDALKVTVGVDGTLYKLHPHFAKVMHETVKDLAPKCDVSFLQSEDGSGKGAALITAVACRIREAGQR
Kind of series: Hexokinase 2 inhibition (Transcreener ADP2 assay). The series is classed as biochemical. The note with it: read-out: HK-II Inhibition ADP-FP (% inhibition at 20 μM). The source says: It is well known that tumor cells mainly rely on glycolysis for energy generation and intermediary metabolism, a phenomenon known as the Warburg effect. Hexokinase-II (HK-II), a key enzyme of glycolysis, catalyzes the first step in the conversion of glucose to glucose-6-phosphate. HK-II is highly expressed in many types of tumors and its expression is correlated with glucose uptake, tumor aggressiveness, and poor survival prognosis. Inhibition of HK-II activity attenuates tumor cell growth and induces apoptosis.
The test compounds were added to a typical reaction mixture of HK-II, and the produced ADP concentrations were determined using Transcreener® ADP^2 FI Assay (BellBrook Labs, Madison, Wis., USA).

As to `CCC[C@@H]1CC(=O)C[C@@]2(O1)C(=O)Nc1cccc(Br)c12` [Compound 3ac, (2′S,6′R)-4-bromo-6′-propyl-5′,6-dihydrospiro[indoline-3,2′-pyran]-2,4′(3′H)-dione], the pIC50 (as a rule, the negative decadic logarithm of the IC50, by convention in mol/L) in series [1] (sample of 82% ee) is 4.80. Also, in series [2], the “activity selectively lethal to tumor cells in which both WNT and KRas signaling pathways are activated” value (from here on “activity selectively lethal”) is listed as “selectively lethal”.

Take `CCC[C@@H]1CC(=O)C[C@@]2(O1)C(=O)Nc1cccc(Cl)c12` [Compound 3ab, (2′S,6′R)-4-chloro-6′-propyl-5′,6′-dihydrospiro[indoline-3,2′-pyran]-2,4′(3′H)-dione]: the negative logarithm of the IC50 (pIC50) in series [1] (sample with no ee given) is 4.82. In series [2], the “activity selectively lethal” value is reported as “selectively lethal”.

`C=CC[C@@]1(O)C[C@@H](CCC)O[C@]2(C1)C(=O)Nc1ccccc12` [Compound 7, (2′S,4′R,6′R)-4′-allyl-4′-hydroxy-6-propyl-3′,4′,5′,6-tetrahydrospiro[indoline-3,2′-pyran]-2-one]: the melting point (as a rule, the temperature of the solid-liquid transition) was in the range of 189 to 191 °C. Besides, in series [1] (sample of 87% ee), the pIC50 was less than 3.67. Moreover, the pIC50 in series [1] (sample with no ee given) is less than 3.67.

The compound `CCC[C@@H]1C[C@@H](O)C[C@@]2(O1)C(=O)Nc1ccccc12` [Compound 5, (2′S,4′R,6′R)-4′-hydroxy-6′-propyl-3′,4′,5′,6′-tetrahydrospiro[indoline-3,2′-pyran]-2-one] registered a melting point of 169 to 171 °C. Besides, the pIC50 in series [1] (sample of 92% ee) was less than 3.61. Moreover, the pIC50 in series [1] (sample with no ee given) was less than 3.61.

Turning to `CCC[C@@H]1C/C(=N/NS(=O)(=O)c2ccc(C)cc2)C[C@@]2(O1)C(=O)Nc1ccccc12` (stereo in doubt), the melting point lay within 197 to 199 °C.

Take `CCC[C@@H]1CC(=O)C[C@@]2(O1)C(=O)Nc1ccccc12` [Compound 3aa, (2′S,6′R)-6′-Propyl-5′,6′-dihydrospiro[indoline-3,2′-pyran)-2,4′(3′H)-dione]: the melting point lay within 118 to 120 °C. In series [1] (sample of 99% ee), this compound had a pIC50 of 3.89. In series [1] (sample with no ee given), this compound had a pIC50 of 3.90.

As for `O=C1C[C@H](c2ccccc2)O[C@@]2(C1)C(=O)Nc1ccccc12` [Compound 3ja, (2′R,6′R)-6′-phenyl-5′,6′-dihydrospiro[indoline-3,2′-pyran]-2,4′(3′H)-dione], the inhibition – broadly, the drop in the measured response relative to a control, in per cent – at 20 µM in series [3] turned out to be 33.8%. For the same compound, in series [2], the “activity selectively lethal” value was “selectively lethal”.

In the case of `CCC[C@@H]1C[C@@H](NCc2ccccc2)C[C@@]2(O1)C(=O)Nc1ccccc12` [Compound 6, (2′S,4′R,6′R)-4′-(benzylamino)-6-propyl-3′,4′,5′,6-tetrahydrospiro[indoline-3,2′-pyran]-2-one], the inhibition at 20 µM in series [3] turned out to be 37.7%.

`CCC[C@@H]1CC(=O)C[C@@]2(O1)C(=O)Nc1cc(Cl)ccc12` [Compound 3af, (2′S,6′R)-6-chloro-6′-propyl-5′,6′-dihydrospiro[indoline-3,2′-pyran]-2,4′(3′H)-dione] had a pIC50 in series [1] (sample with no ee given) of 4.68. Further, in series [2], the “activity selectively lethal” value is “selectively lethal”.

Regarding `CCC[C@@H]1CC(=O)C[C@@]2(O1)C(=O)Nc1ccc(Br)cc12` [Compound 3ae, (2′S,6′R)-5-bromo-6′-propyl-5′,6′-dihydrospiro[indoline-3,2′-pyran]-2,4′(3′H)-dione], the pIC50 in series [1] (sample with no ee given) was 4.70. Besides, the “activity selectively lethal” value in series [2] was “selectively lethal”.

Take `O=C1C[C@@H](CCN2C(=O)c3ccccc3C2=O)O[C@]2(C1)C(=O)Nc1ccccc12` [Compound 3ga, (2′S,6′R)-6′-(2-(1,3-dioxoisoindolin-2-yl)ethyl)-5′,6′-dihydrospiro[indoline-3,2′-pyran]-2,4′(3′H)-dione]: the melting point lay within 199 to 201 °C. The same compound showed a negative logarithm of the IC50 (pIC50) in series [1] (sample of 91% ee) of 3.95.
